Test results: publication PMC9054013, “FCHO controls AP2’s initiating role in endocytosis through a PtdIns(4,5)P2-dependent switch” (Science Advances, 2022)
Where no end group is shown, it is not given here.

How the values were obtained:
[1] = tested on: BR4-mutated (K339A, K341A, K343A, and K345A) His6-MBP-Cμ2; experiment: GST pull-down of BR4-mutated His6-MBP-Cμ2; type: binding; settings: Coomassie SDS-PAGE
Protocol: A measured amount of GST or GST-fusion protein was immobilized onto 60 μl of 50% slurry of GSH Sepharose beads in microfuge tubes and the volume made up to 750 μl with buffer. After incubation at 4°C with continuous mixing, the Sepharose beads were recovered by centrifugation (10,000g for 1 min), and the supernatants were removed. Each bead pellet was washed three times with cold assay buffer, and most of the buffer was carefully aspirated, leaving a final equivalent volume of ~50 μl.

AP2 α-appendage = molecular target: T1, AP2 α-appendage (Mus musculus, UniProt P17427); experiment: Isothermal titration calorimetry with α-appendage; type: binding; settings: ITC
T1 construct: GST-tagged Cμ2 and α-appendage proteins were made as in ([51]); GST (cleaved yes); made in house; host or cells: Escherichia coli BL21 plyS
T1 sequence (P17427 701-938 limits assumed): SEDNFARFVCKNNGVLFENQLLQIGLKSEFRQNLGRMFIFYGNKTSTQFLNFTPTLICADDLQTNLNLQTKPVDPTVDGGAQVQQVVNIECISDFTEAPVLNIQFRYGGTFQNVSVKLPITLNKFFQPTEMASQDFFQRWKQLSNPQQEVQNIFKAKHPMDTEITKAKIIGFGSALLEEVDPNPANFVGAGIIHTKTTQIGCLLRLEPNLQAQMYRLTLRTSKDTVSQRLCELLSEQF

Cμ2 = molecular target: T2, Cμ2; settings: read-out: KD of YxxΦ cargo peptide binding to Cμ2; cited from earlier work
T2 construct: Surface representations of the Cμ2 subdomain structure; His6; made in house; host or cells: Escherichia coli BL21 plyS
Excerpt: page 20: Fig.S8 Details of FCHO C block binding to α -appendage and to Cµ2 A, B FCHO1 C block (claret) bound to AP2 α-appendage (blue). […] B 1.4 Å resolution 2Fo-Fc map contoured at 1.6σ. An apo structure of the α-appendage was used as MR search model (PDB 1W80 without ligands) – the direction of the peptide chain is clearly opposite to that of the published DP[FW], FxDxF motif/α-appendage complexes. C, D FCHO2 C block (claret ...

Substance: SERINC3-L10: GST SERINC-L10 (residues 354 to 404), Serinc3 loop binding Cμ2 only at BR4 (RTSTNSQVDKLTLSGSDSVILGDTTTSGASDEEDGQPRRAVDNEKEGVQYS; also: GST fusion, end not given here)
- binding to BR4-mutated Cμ2 compared with WT Cμ2 [1]: severely inhibited

Substance: FCHO1 C: GST-FCHO1 C (residues 414 to 444), Fig. 4B construct ({GST}-SAPRTSSCAERLQSEEQVSKNLFGPPLESAF; UniProt O14526 414-444, looked up, fragment)
- n (stoichiometry) of C block peptide binding to α-appendage (AP2 α-appendage): 1.0

Substance: SDLLAWDPLFG [FCHO2 C peptide]
- Kd (AP2 α-appendage; 100 mM tris pH 7.4, 150 mM NaCl, 0.25 mM TCEP, 12°C, mean ± SEM, minimum three independent runs, read-out: KD of C block peptide binding to α-appendage): 100 to 200 µM

Substance: FCHO2 C: GST-FCHO2 C (residues 413 to 444), Fig. 4B construct ({GST}-SAPPNEKGTSDLLAWDPLFGPSLDSSSSSSLT; UniProt Q0JRZ9 413-444, looked up, fragment)
- n (stoichiometry) of C block peptide binding to α-appendage (AP2 α-appendage): 1.0

Substance: DYQRLN [TGN38, TGN38 YxxΦ cargo peptide (DYQRLN)]
- Kd (Cμ2): ~2 µM
